Consider two substances from patent US11789013B2, “Componential analyzer, drug efficacy analyzer, and analysis method” (Hitachi High-Tech Corporation, priority 2013, dated 2023).

This data set relates to hepatocytes. As to the kind of experiment: Drug distribution / efflux fraction analysis in cultured hepatocytes (basolateral efflux, biliary excretion, intracellular fraction). The conditions noted are these: for ratio of the amount of drug excreted into the bile duct to the total amount of drug taken up into the cells (BiRD), (B1−B2)/(C1+C2): pattern 1, sequences 1 (EGTA disrupted) and 2 (maintained), 37° C.; for ratio of the amount of drug excreted into the bile duct to the total amount of drug taken up into the cells (BiRD), (B1−B2)/(C1+C2) / Sup fraction (first fraction of the basolateral efflux, S1), index for tendency to remain or not to remain in the cells: 30 minutes; for ratio of the amount of drug excreted into the bile duct to the total amount of drug taken up into the cells (BiRD), (B1−B2)/(C1+C2) / ratio of the amount of drug excreted via transporter to the amount of drug excreted to the basolateral side (RexEMTP), (B2-B3)/B2: fluorescence; for ratio of the amount of drug excreted via transporter to the amount of drug excreted to the basolateral side (RexEMTP), (B2-B3)/B2: pattern 1, step 5, 30 minutes, sequences 2 (37° C.) and 3 (4° C.); for Sup fraction (first fraction of the basolateral efflux, S1), index for tendency to remain or not to remain in the cells: pattern 2 (sum of steps 4, 5, 6 = 100%), step 4, 37° C., in %. Format: in vitro ADME, rat. On the procedure:
Hepatocytes were prepared by in situ collagenase perfusion method. The details are as follows. A rat (5-6 week-old) is anesthetized with pentobarbital and laparotomy is performed to insert a catheter into the portal vein and inject the preperfusion solution (a Ca^2+ and Mg^2+ free Hanks' solution containing EGTA). After confirming that blood is sufficiently removed from the liver, the perfusion is stopped. The perfusate is changed into a collagenase solution to conduct perfusion. In this embodiment, the perfusion is conducted with a Hanks' solution containing 0.05% collagenase, but the collagenase solution is not limited to this. Once confirmed that the tissue between the cells was digested by collagenase, the perfusion is stopped. The liver is excised, sliced in a cooled Hanks' solution, and separated into cells by pipetting. Damaged hepatocytes are removed by centrifugation at 500 G for 5 minutes with an isotonic Percoll solution. The viability of the resultant hepatocytes is determined by the trypan blue-exclusion test. Hepatocytes having a viability of 85% or more are used for culture. Here, hepatocytes having a viability of 85% or more are used for culture, but such culture is, needless to say, not necessarily limited to the condition. In addition, the preparation of hepatocytes is not necessarily limited to that by in situ collagenase perfusion method. The hepatocytes to be used are not limited to those derived from a rat and the strain of rat is not limited. This embodiment uses hepatocytes, but cells are not limited to this.
Hepatocytes prepared by in situ collagenase perfusion method as described above are suspended in a medium. The hepatocytes are suspended at a density of 5×10^5 cells/mL in a medium and plated onto a commercially available culture dish coated with collagen. The density upon plating, the medium, and the culture plate 001 are not particularly limited. The culture plate is illustrated in FIG. 1. A 24 well culture plate having 24 culture regions (wells, 002) is here illustrated, but the culture plate is not limited to this as long as it can contain predetermined cells and containers in other shapes may be used. After plating, culture is started under conditions of 5% CO2 and 37° C. using a CO2 incubator. After 18 hours or more, the first medium change is conducted. Although the medium to be used for culture 18 hours after the plating is not particularly limited, in this embodiment, the medium (FCS−), a medium in which FCS is removed from the medium (10% FCS+), supplemented with Matrigel is used. After this, medium change with the medium (FCS−) is conducted every 24 hours. As described later, testing is conducted under three different conditions (sequences 1, 2, and 3: described in detail in step 5) in step 5, three independent culture plates with the same conditions are prepared at this point. In steps 0 to 4 and step 5, the same testing operations are conducted in all the three sequences.
The culture supernatant of the cells cultured in step 0 for 4 days is removed and 400 μL of Hanks' solution is added as a buffer. The cells are incubated at 37° C. for 10 minutes (FIG. 2, step 1). The type and amount of buffer are not particularly limited.
The buffer is removed, and then 200 μL of 10 μM CDF (a fluorescent reagent) is added to the well. The plate is incubated at 37° C. for 30 minutes and then maintained at 4° C. for 5 minutes (FIG. 2, step 2). The type, concentration, and amount of the reagent are not particularly limited. CDF emits fluorescence and can be therefore easily quantified by a plate reader as a model reagent. The amount of administration, 200 μL, was chosen so that the cells as a whole in the well would be immersed in the reagent. The concentration of CDF may be a concentration conventionally used for a fluorescence assay of cells. This concentration is preferably applied as an amount of the reagent for the detection with a plate reader. […]

For the substance CDF, the “ratio of the amount of drug excreted into the bile duct to the total amount of drug taken up into the cells (BiRD), (B1−B2)/(C1+C2)” value amounted to 18.58; the “ratio of the amount of drug excreted via transporter to the amount of drug excreted to the basolateral side (RexEMTP), (B2-B3)/B2” value is given as 41.08; the “Sup fraction (first fraction of the basolateral efflux, S1), index for tendency to remain or not to remain in the cells” value is 70.82.
The like results for Rhodamine123 were, in that order, 4.92, 52.52 and 39.29.
